Entries after “also recorded” stand apart in the source; their conditions may differ. Where two headings read alike, the source gives them in different places. Where a SMILES comes first, the peptide text is derived from it. The star is where a group is joined. Cbz = O=C(OCc1ccccc1)*; CH2F = FC*
Experiments:
SW1271 cells [1] = test: SW1271 cell viability assay; assay type: cell-based; details: 100 µM, 24 h
Protocol: UCHL1 is a key promoter of cell invasion and metastasis in small cell lung cancer but not necessarily required for cell viability or proliferation. Thus, we chose to assess the efficacy of targeting UCHL1 using the SW1271 small cell lung cancer cell line. […] The Ub-ABP assay was used to confirm on target engagement of UCHL1 within these cells.
Luciferase-constructed cancer cells were seeded in 96-well plates at 10,000 cells/well with the compounds at the indicated concentrations. DMSO was used as vehicle control. Luminescence readings were acquired after adding 1% D-luciferin (GoldBio, St. Louis, MO, USA) after 24 h. Cell viability was determined by the ratio of luminescence reading compared to the one at 0 h, and normalized to vehicle control.

SW1271 cells [2] = test: Scratch wound healing cell migration assay; assay type: cell-based; details: 100 µM, 24 h
Protocol: The same experiments were performed on wild type SW1271 cells treated with fluoromethylketone analogs. Molecules 1 and 34 were first assessed for their effect on cell viability at 100 µM to determine if any observed reduction in cell viability may influence the migration assays (Figure 9E). […] Due to the slow reactive nature of the inhibitor and the modest potency the anti-migratory efficacy of these analogs may be improved with longer duration of treatment or increasing the frequency of treatment. Further studies are underway to elucidate the role UCHL1 plays in the migratory cellular pathways using both genetic depletion and inhibitor approaches.
Wild-type or shRNA treated UCHL1 knockdown SW1271 cells were seeded in 12-well plates at 1 million cells/well. The cells were cultured overnight to grow as a confluent single layer. The cross-style wounds were created using pipet tips to scratch on the single layer of cells. The compounds were prepared in full growth media at the desired concentrations and added after the wounds were created. DMSO was used as the vehicle control. Photos of the wounds were captured immediately after adding treatments at 0 h. Photos of the wounds were captured at 0 and 24 h. The areas of cross-style wounds were quantified using Image J 1.52a software. The migration rate (%) was defined as the percentage of area at each timepoint compared to the one at 0 h.

UCHL1 [3] = biological target: T1, UCHL1 (Homo sapiens, UniProt P09936); test: Fluorescence-based Ub-Rho deubiquitinase activity assay; assay type: biochemical; parameters: made in house; details: for IC50: 3 h of preincubation with UCHL1, technical triplicate, averages
T1 sequence (P09936 1-223): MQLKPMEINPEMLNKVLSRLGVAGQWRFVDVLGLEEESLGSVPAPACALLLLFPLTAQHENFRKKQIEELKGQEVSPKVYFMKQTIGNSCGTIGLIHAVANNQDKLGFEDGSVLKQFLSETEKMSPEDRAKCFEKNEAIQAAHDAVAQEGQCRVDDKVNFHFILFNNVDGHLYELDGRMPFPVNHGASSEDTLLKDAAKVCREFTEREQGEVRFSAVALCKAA
Protocol: Thus, a 3-h preincubation period was selected for the structure-activity relationship (SAR) comparison of all analogs to ensure full reaction time and for consistent comparison of activity against UCHL1 within the scaffold. […] A 10 mM stock solution was made for each inhibitor in DMSO, then a dilution of 600 µM in reaction buffer was made followed eight by 1:1 serial dilutions. […] These were allowed to incubate, while sealed, for the 3 h at room temperature. […] The % activity was plotted as a function of inhibitor concentration and the data was fitted with non-linear regression analysis to calculate the IC50 values. Errors are reported as the 95% confidence interval calculated from experiments collected in technical triplicate.

UCHL1 [4] = biological target: T1, UCHL1; test: Time-dependent inhibitor analysis (kinact/KI); assay type: biochemical; parameters: made in house
Protocol: Irreversible covalent inhibitors may be further characterized by determining the reversible binding constant (KI) as well as the rate of the covalent bond formation under saturating conditions (kinact). By determining the IC50 over the course of various timepoints, the pseudo first-order rate constant (kobs) could be calculated. […] The % activity of each inhibitor concentration was the plotted vs. time of pre-incubation and the slope of this plot is the pseudo first-order rate constant (kobs) for inhibition at each concentration. The kobs was plotted as a function of inhibitor concentration and then fit to the equation Y = kinactX/(KI + X) to calculate kinact, KI and kinact/KI as described by Resnick et al..

UCHL3 = biological target: T2, UCHL3 (Homo sapiens, UniProt P15374); test: Fluorescence-based Ub-Rho deubiquitinase activity assay; assay type: biochemical; parameters: His (N); made in house; details: top concentration of 200 µM; Figure S1
T2 sequence (P15374 1-230): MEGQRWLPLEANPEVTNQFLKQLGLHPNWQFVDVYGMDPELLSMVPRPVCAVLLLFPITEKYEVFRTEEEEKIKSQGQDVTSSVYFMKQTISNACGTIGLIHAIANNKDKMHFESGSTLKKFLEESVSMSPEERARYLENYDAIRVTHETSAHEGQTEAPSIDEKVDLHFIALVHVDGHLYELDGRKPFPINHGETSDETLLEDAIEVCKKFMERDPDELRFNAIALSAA
Protocol: The in vitro inhibition of UCHL1 was determined by monitoring the cleavage of rhodamine 110 from substrate Rhodamine110-ubiquitin (Ub-Rho). […]. Thus, a 3-h preincubation period was selected for the structure-activity relationship (SAR) comparison of all analogs to ensure full reaction time and for consistent comparison of activity against UCHL1 within the scaffold. […]. The assay was performed in black 384-well plates (Catalog #12566624, Fisher, Waltham, MA, USA). DUB stock solutions were diluted in reaction buffer (50 mm Tris pH 7.6, 0.5 mm EDTA, 5 mm DTT, 0.1 % (w/v) BSA) to a concentration of 2.5 nM for UCHL1 or 0.025 nM for UCHL3. […] Plates were read immediately and fluorescence of cleaved Rhodamine 110 fluorophore was monitored at λex = 485 nm, λem = 535 nm continuously for 20 min on a Synergy Neo2 instrument (BioTek, Winooski, VT, USA) The raw data was loaded into GraphPad Prism 8 (GraphPad Software, San Diego, CA, USA; www.graphpad.com, accessed on 12 January 2021) and the slope of the linear portion of the fluorescence vs. time curves was calculation for each inhibitor concentration and % activity of the enzyme was determined compared to DMSO-treated controls. […] Errors are reported as the 95% confidence interval calculated from experiments collected in technical triplicate.

| SMILES | SW1271 cell viability (SW1271 cells [1]) | migration of SW1271 cells compared to DMSO control (SW1271 cells [2]) | IC50 (UCHL1 [3]; IC50 (µM)) | Ki (UCHL1 [4]) | activity versus UCHL3 (UCHL3) | IC50 (UCHL1 [3]; read-out: IC50) | fold more active than 1 versus UCHL1 (UCHL1 [3]; IC50 comparison, 3 h preincubation) | improvement of KI compared with 1 (UCHL1 [4]) | kinact (UCHL1 [4]) | kinact/KI (UCHL1 [4]) | Ki (UCHL1 [4]; reversible binding constant of covalent inhibition, read-out: KI) |
| --- | --- | --- | --- | --- | --- | --- | --- | --- | --- | --- | --- |
| COC(=O)CC[C@H](NC(=O)[C@H](C)NC(=O)[C@@H](NC(=O)OCc1ccccc1)C(C)C)C(=O)CF [Cpd 1, benzyloxycarbonyl-Val-Ala-Glu(γ-methoxy)-fluoromethylketone] (Cbz-Val-Ala-Glu(OMe)-CH2F) | no effect on the cell viability; also recorded: neither 1 nor 34 displayed cytotoxic effect | the same reduction of migratory ability was not observed | 24 µM | 60 µM | no activity | – | – | – | – | – | – |
| C#Cc1ccc(COC(=O)N[C@H](C(=O)N[C@@H](C)C(=O)N[C@@H](CCC(=O)OC)C(=O)CF)C(C)C)cc1 [Cpd 34] | no effect on the cell viability; also recorded: did not reduce SW1271 cell viability; also recorded: neither 1 nor 34 displayed cytotoxic effect; also recorded: does not exhibit any cellular toxicity | significantly reduced the ability of the cells to migrate; also recorded: anti-migratory properties | – | – | no observable activity | 7.7 µM | approximately 3 fold | greater than 3 fold | 0.0136 s⁻¹ | 810 M⁻¹ s⁻¹ | 16.8 µM |

From paper PMC7956625, “Optimization and Anti-Cancer Properties of Fluoromethylketones as Covalent Inhibitors for Ubiquitin C-Terminal Hydrolase L1” (Molecules, 2021)
